Patent US8299067B2, “5-demethoxyfumagillol and derivatives thereof” (Versitech Limited, priority 2008, dated 2012)

How the values were obtained:
[1] = tested on: bovine arotic endothelial cells (BAEC); test: BAEC proliferation assay; format: cell-based; settings: tritiated thymidine incorporation, 24 hours drug plus 6 hours label, 0.5% DMSO
Procedure: (A) BAEC Proliferation Assay
About 2500 bovine arotic endothelial cells (BAEC) in 195 μl of DMEM (Dulbecco's Modified Eagle's Medium) were plated per well of a 96-well plate and grown at 37° C. and 5% CO2. Cells were allowed to recover for 12 hours. 1 μL of 200 times drug stock solution was added to each treatment well. The final vehicle (DMSO) concentration was 0.5%. Vehicle only was used as a control for maximum proliferation. Three wells were treated for each drug concentration. After 24 hours, 1 μCi of tritiated thymidine (diluted in DMEM to a total volume of 10 μL) was added to each well. After additional 6 hours incubation, each well was washed in 180 μl of PBS buffer. 70 μL of trypsin was added to each well. Plates were incubated for 5 minutes at 37° C. Cells were harvested using a Harvester 96 Mach III M (Tomtec) and transferred to glass fiber filters (Wallac). 6 mL of Betaplate Scint (PerkinElmer) was added to each filter in a sealed sample bag. Scintillation counting was done in using a 1450 MicroBeta counter (Wallac). CPM were normalized to vehicle control, averaged across three replicates, and fit to the following equation using GraphPadPrism v4.0: Y=Bottom+(Top-Bottom)/(1+10^((Log EC50−X)*HillSlope)) wherein X is the logarithm of concentration and Y is the response. Y started at Bottom and went to Top with a sigmoid shape. The bottom value was constrained to zero.

[2] = target: T1, Recombinant human MetAP-2 (Homo sapiens, UniProt P50579); test: MetAP-2 enzymatic assay; format: biochemical; settings: 1 nM purified human MetAP-2, inhibitor incubated at 37° C. for 30 minutes, 1 mM Met-Gly-Met-Met, released methionine
T1 construct: made in house; host or cells: insect cells
Procedure: (B) MetAP-2 Enzymatic Assay Recombinant human MetAP-2 was expressed and purified from insect cells as previously described (Li, X.; Chang, Y.-H. Biochem. Biophys. Res. Commun. 1996, 227, 152). […] To start the enzymatic reaction, […] was added to a concentration of 1 mM to the reaction mixture. Released methionine was quantified at different time points (0, 2, 3 and 5 min) using the method of Zuo et al (Zuo, S.; Guo, Q.; Ling, C.; Chang, Y-.H. Mol. Gen. Genet. 1995, 246, 247).

T1 sequence (P50579 whole entry): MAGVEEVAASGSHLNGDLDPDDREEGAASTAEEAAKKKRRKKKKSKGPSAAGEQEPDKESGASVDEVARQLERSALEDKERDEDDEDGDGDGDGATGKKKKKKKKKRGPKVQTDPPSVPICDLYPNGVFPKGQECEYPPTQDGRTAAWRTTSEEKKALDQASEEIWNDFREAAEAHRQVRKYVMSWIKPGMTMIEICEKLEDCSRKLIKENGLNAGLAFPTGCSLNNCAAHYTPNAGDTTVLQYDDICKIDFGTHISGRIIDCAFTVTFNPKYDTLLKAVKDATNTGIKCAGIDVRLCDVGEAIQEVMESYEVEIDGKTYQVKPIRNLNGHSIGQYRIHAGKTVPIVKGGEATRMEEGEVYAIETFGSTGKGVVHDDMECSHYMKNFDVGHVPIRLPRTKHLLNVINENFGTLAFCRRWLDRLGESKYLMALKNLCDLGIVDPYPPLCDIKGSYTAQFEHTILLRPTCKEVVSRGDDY

Structure (SMILES)	IC50 ([1]; Bos taurus, BAEC, 30 h) [nM]	IC50 [2] [nM]	IC50 [1] [nM]
CC(C)=CC[C@H]1O[C@]1(C)[C@H]1C[C@H](OC(=O)N2CCC2)CC[C@]12CO2 [Compound 17r]	0.038	–	–
CC(C)=CC[C@H]1O[C@]1(C)[C@H]1C[C@H](OC(=O)N[C@@H](Cc2ccccc2)C(=O)N2CCOCC2)CC[C@]12CO2 [Compound 17h]	0.079	44	–
CC(C)=CC[C@H]1O[C@]1(C)[C@H]1C[C@H](OC(=O)N[C@H](C(=O)NC2CC2)C(C)C)CC[C@]12CO2 [Compound 17n]	0.031	19	–
CC(C)=CC[C@H]1O[C@]1(C)[C@H]1C[C@H](OC(=O)N[C@@H](C(N)=O)c2ccccc2)CC[C@]12CO2 [Compound 17e]	0.085	42	–
CC(C)=CCC1OC1(C)C1CC(O)CCC12CO2 (stereo not shown) [5-Demethoxyfumagillol, 5-demethoxyfumagillol]	–	975	0.28
CC(C)=CC[C@H]1O[C@]1(C)[C@H]1C[C@H](OC(=O)N2CCOCC2)CC[C@]12CO2 [Compound 17z]	0.048	–	–
CC(C)=CC[C@H]1O[C@]1(C)[C@H]1C[C@H](OC(=O)N[C@@H](Cc2ccccc2)C(=O)NC2CC2)CC[C@]12CO2 [Compound 17j]	0.027	41	–
C#CCNC(=O)[C@@H](Cc1ccccc1)NC(=O)O[C@@H]1CC[C@]2(CO2)[C@@H]([C@@]2(C)O[C@@H]2CC=C(C)C)C1 [Compound 17l]	0.051	21	–
CC(C)=CC[C@H]1O[C@]1(C)[C@H]1C[C@H](OC(=O)N[C@@H](Cc2ccccc2)C(=O)NCCCN=[N+]=[N-])CC[C@]12CO2 [Compound 17g]	1.41	41	–
COc1ccc(CNC(=O)[C@H](Cc2ccccc2)NC(=O)O[C@@H]2CC[C@]3(CO3)[C@@H]([C@@]3(C)O[C@@H]3CC=C(C)C)C2)cc1 [Compound 17m]	0.19	11	–
CO[C@@H]1[C@H](O)CC[C@]2(CO2)[C@H]1[C@@]1(C)O[C@@H]1CC=C(C)C [Fumagillol]	–	909	2.04
CC(C)=CC[C@H]1O[C@]1(C)[C@H]1C[C@H](OC(=O)NN2CCCCC2)CC[C@]12CO2 [Compound 17ab]	0.04	–	–
CC(C)=CC[C@H]1O[C@]1(C)[C@H]1C[C@H](OC(=O)N2CCCC2)CC[C@]12CO2 [Compound 17s]	0.04	–	–
CC(C)=CC[C@H]1O[C@]1(C)[C@H]1C[C@H](OC(=O)N2CCCCC2)CC[C@]12CO2 [Compound 17t]	0.081	–	–
CC(C)=CC[C@H]1O[C@]1(C)[C@H]1C[C@H](OC(=O)N[C@H](CC(C)C)C(N)=O)CC[C@]12CO2 [Compound 17f]	0.092	39	–
CC(C)=CC[C@H]1O[C@]1(C)[C@H]1C[C@H](OC(=O)N2CCN(c3ccc(F)cc3)CC2)CC[C@]12CO2 [Compound 17v]	0.068	–	–
CC(C)=CC[C@H]1O[C@]1(C)[C@H]1C[C@H](OC(=O)N2CCN(c3ccc([N+](=O)[O-])cc3)CC2)CC[C@]12CO2 [Compound 17q]	0.02	26	–
CC(C)=CC[C@H]1O[C@]1(C)[C@H]1C[C@H](OC(=O)N2CCN(C3CCCC3)CC2)CC[C@]12CO2 [Compound 17y]	0.031	–	–
CC(C)=CC[C@H]1O[C@]1(C)[C@H]1C[C@H](OC(=O)N2CCN(CC3CCCCC3)CC2)CC[C@]12CO2 [Compound 17w]	0.074	–	–
CC(C)=CC[C@H]1O[C@]1(C)[C@H]1C[C@H](OC(=O)N[C@@H](C(N)=O)C(C)C)CC[C@]12CO2 [Compound 17a]	0.21	29	–
C=CCN1CCN(C(=O)O[C@@H]2CC[C@]3(CO3)[C@@H]([C@@]3(C)O[C@@H]3CC=C(C)C)C2)CC1 [Compound 17x]	0.047	–	–
CC(C)=CC[C@H]1O[C@]1(C)[C@H]1C[C@H](OC(=O)Nc2nccs2)CC[C@]12CO2 [Compound 17ac]	0.038	–	–
C=CCNC(=O)[C@H](Cc1ccccc1)NC(=O)O[C@@H]1CC[C@]2(CO2)[C@@H]([C@@]2(C)O[C@@H]2CC=C(C)C)C1 [Compound 17i]	0.059	47	–
CC(C)=CC[C@H]1O[C@]1(C)[C@H]1C[C@H](OC(=O)N[C@@H](Cc2ccccc2)C(=O)N2CCN(Cc3ccc(F)cc3)CC2)CC[C@]12CO2 [Compound 17k]	0.21	12	–
CC(C)=CC[C@H]1O[C@]1(C)[C@H]1C[C@H](OC(=O)N[C@H](Cc2ccccc2)C(N)=O)CC[C@]12CO2 [Compound 17c]	0.039	16	–
CC(C)=CC[C@H]1O[C@]1(C)[C@H]1C[C@H](OC(=O)N2CCN(C)CC2)CC[C@]12CO2 [Compound 17u]	0.089	–	–
CC(C)=CC[C@H]1O[C@]1(C)[C@H]1C[C@H](OC(=O)N[C@@H](Cc2ccccc2)C(N)=O)CC[C@]12CO2 [Compound 17d]	0.067	56	–
COC(=O)[C@@H](NC(=O)O[C@@H]1CC[C@]2(CO2)[C@@H]([C@@]2(C)O[C@@H]2CC=C(C)C)C1)C(C)C [Compound 17p]	0.062	27	–
CC(C)=CC[C@H]1O[C@]1(C)[C@H]1C[C@H](OC(=O)N[C@H](C(=O)NC2CCCC2)C(C)C)CC[C@]12CO2 [Compound 17o]	0.035	28	–
CC(C)=CC[C@H]1O[C@]1(C)[C@H]1C[C@H](OC(=O)N[C@H](C(N)=O)C(C)C)CC[C@]12CO2 [Compound 17b]	0.11	50	–
